# Measurements published in patent US12239652B2, “Composition for preventing or treating muscular diseases, or for improving muscular functions, containing ganglioside” (INDUSTRY-ACADEMIC COOPERATION FOUNDATION, YONSEI UNIVERSITY, priority 2018, dated 2025).
# Tests used:
# [1] = tested on: mTOR; assay: mTOR Sandwich ELISA in L6 myotubes (activity for myogenic induction); assay type: cell-based; conditions: 12-h culture, *P<0.05
# Procedure: The mTOR protein is known to induce the activation of proteins involved in muscle protein synthesis and an increase in muscle mass in the PI3K/Akt signaling pathway in muscle cells when phosphorylated and activated. Thus, the activity of mTOR was confirmed using an mTOR Sandwich ELISA kit (Cell Signaling Technology, Beverly, MA, USA) to determine the activity of ganglioside GM3 for myogenic induction.
# L6 myoblasts (ATCC; Manassas, VA, USA) were seeded with Dulbecco's modified Eagle's media (DMEM; Hyclone) supplemented with 10% fetal bovine serum (FBS; Hyclone, Logan, UT, USA) in a 6-well plate at a density of 1×10^5 cells/well, followed by culture for 24 h. The media in the wells were replaced with DMEM (Hyclone) supplemented with 2% horse serum (HS; Hyclone), followed by culture for additional 6 days to differentiate the L6 cells into myotubes. Then, cells were treated with ganglioside GM3 (Cayman, Ann Arbor, MI, USA) at a concentration of 1 μM or 5 μM. After 12-h culture, cells were lysed by treatment with a cell lysis buffer. Proteins in the cell lysate were quantified by the Bradford method (Bio-Rad Laboratories Inc., Hercules, CA, USA) and the concentration of the cell lysate was then adjusted to 1 mg/mL. The cell lysate was plated in microwells bound with anti-mTOR antibody (50 μL/well) and cultured at 37° C. for 2 h. Cells were washed a total of 4 times with a washing buffer, treated with a detection antibody, and cultured at 37° C. for 1 h, rewashed a total of 4 times with a washing buffer, added with a horseradish peroxidase (HRP)-conjugated secondary antibody, and cultured at 37° C. for 30 min. Finally, after washing a total of 4 times with a washing buffer, TMB substrate was added to each well. After culture at 37° C. for 10 min, a stop solution was added to stop the TMB reaction. 2 min later, absorbance was measured at a wavelength of 450 nm to determine the level of mTOR in the myotubes treated with ganglioside GM3.
# The procedure of Example 1 was repeated except that cells were treated with ganglioside GM1 (Cayman) at a concentration of 15 μM or 25 μM to examine the activity of the ganglioside for myogenic induction.
# The procedure of Example 1 was repeated except that cells were treated with ganglioside GD1a (Cayman) at a concentration of 1 μM or 3 μM to examine the activity of the ganglioside for myogenic induction.
# The procedure of Example 1 was repeated except that cells were treated with each of gangliosides GT1b and GQ1b (Cayman) at a concentration of 1 μM to examine the activity of the ganglioside for myogenic induction.
# [2] = tested on: p-p70S6K; assay: Western blot of mRNA translation biomarkers in TNF-α-treated L6 myotubes: p-p70S6K; assay type: cell-based; conditions: 50 ng/mL TNF-α
# Procedure: (§1) L6 myoblasts (ATCC) were seeded with DMEM (Hyclone) supplemented with 10% FBS (Hyclone) in a 6-well plate at a density of 1×10^5 cells/well, followed by culture. When the cultured cells reached a confluency of ˜80-85% per well, the media in the wells were replaced with DMEM (Hyclone) supplemented with 2% HS (Hyclone), followed by culture for additional 6 days to induce differentiation into myotubes. During culture for 6 days, the culture media were changed once every other day a total of 3 times. […] A group treated with 0.01% DMSO instead of the sample was used as a control. Cells were lysed with NP-40 buffer (ELPIS-Biotech, Daej eon, Korea) with a protease inhibitor cocktail (Sigma-Aldrich, St. Louis, MO, USA) and centrifuged at 13,000 rpm for 10 min. The cell lysate was obtained from the supernatant. The concentration of proteins in the supernatant was determined by the Bradford method (Bio-Rad Laboratories Inc.). Proteins at a certain concentration were heated for 5 min and separated by SDS-PAGE electrophoresis. The separated proteins were transferred to nitrocellulose membranes. Then, p-mTOR, mTOR, p-p70S6K, p70S6K, p-4EBP1, 4EBP1, and alpha-tubulin primary antibodies (Cell signaling technology, Beverly, MA, USA) were diluted at a ratio of 1:1000 with 2.5% bovine serum albumin (BSA; Bioworld, Dubin, OH, USA) and incubated with the proteins transferred to the nitrocellulose membranes at room temperature for 20 h. After incubation of the primary antibodies, the nitrocellulose membranes were washed 3 times with Tris-buffer saline Tween 20 (TBST) for 10 min. After washing, an anti-rabbit secondary antibody (Bethyl Laboratories, Inc., Montgomery, TA, USA) conjugated with horseradish peroxidase recognizing the primary antibodies was diluted 1:5000 with 2.5% BSA (Bioworld) and incubated with the nitrocellulose membranes at room temperature for 2 h. […]
# (§2) Protein bands detected through antibody binding were developed using an ECL western blot detection reagent (Amersham, Tokyo, Japan) and visualized using a G;BOX EF imaging system (Syngene, Cambridge, UK). […]
# [3] = tested on: p-mTOR; assay: Western blot of mRNA translation biomarkers in TNF-α-treated L6 myotubes: p-mTOR; assay type: cell-based; conditions: 50 ng/mL TNF-α
# Procedure: as §1, §2
# [4] = tested on: MuRF1; assay: RT-PCR of muscle degrading protein mRNA in TNF-α-treated L6 myotubes: MuRF1; assay type: cell-based; conditions: 50 ng/mL TNF-α
# Procedure: (§3) L6 myoblasts (ATCC) were seeded with DMEM (Hyclone) supplemented with 10% FBS (Hyclone) in a 6-well plate at a density of 1×10^5 cells/well, followed by culture. When the cultured cells reached a confluency of ˜80-85% per well, the media in the wells were replaced with DMEM (Hyclone) supplemented with 2% HS (Hyclone), followed by culture for additional 6 days to induce differentiation into myotubes. During culture for 6 days, the culture media were changed once every other day a total of 3 times. The differentiation-induced cells were harvested and the cell media were replaced with DMEM supplemented with 50 ng/mL TNF-α (PeproTech) in which ganglioside GM3 (Cayman) was dissolved at a concentration of 1 μM or 5 μM. A group treated with 0.01% DMSO instead of the sample was used as a control. Total RNA was isolated from cells using TRIzol reagent (Takara, Kyoto, Japan). The isolated total RNA was quantified using NanoDrop 1000 (Thermo Fisher Scientific Inc., Waltham, MA, USA). 16 μL of the RNA was synthesized into cDNA using Reverse Transcriptase Premix (ELPIS-Biotech) and a PCR system (Gene Amp PCR System 2700; Applied Biosystems, Foster City, CA, USA) at 42° C. for 55 min and 70° C. for 15 min. 3 μL of the synthesized cDNA, the specific primers shown in Table 1 (Bioneer, Daej eon, Korea), and PCR premix (ELPIS-Biotech) were mixed and PCR was repeated 30 times at 95° C. for 30 sec, 60° C. for 1 min, and 72° C. for 1 min. After PCR amplification, cDNA was separated by electrophoresis on a 1.5% agarose gel and the cDNA bands were visualized using a G;BOX EF imaging system (Syngene).
# (§4) The procedure of Example 8 was repeated except that cells were treated with ganglioside GM1 (Cayman) at a concentration of 15 μM or 25 μM to investigate the mRNA transcription and expression levels of atrogin-1 and MuRF1 as muscle degrading proteins.
# (§5) The procedure of Example 8 was repeated except that cells were treated with ganglioside GD1a (Cayman) at a concentration of 1 μM or 3 μM to investigate the mRNA transcription and expression levels of atrogin-1 and MuRF1 as muscle protein degradation-related enzymes.
# (§6) The procedure of Example 8 was repeated except that cells were treated with each of gangliosides GT1b and GQ1b (Cayman) at a concentration of 1 μM to investigate the mRNA transcription and expression levels of atrogin-1 and MuRF1 as muscle protein degradation-related enzymes.
# [5] = tested on: Wistar rats; assay: Muscle mass (soleus weight) in TNF-α-induced muscular atrophy animal model; assay type: in vivo; conditions: 50 mg/kg body weight once a day for 8 weeks; for Average soleus weight: right soleus, control 416.0 ± 19.57
# Procedure: Wistar rats, aged five weeks, were acclimatized for one week and supplied with 100 ng/g of TNF-α for 2 weeks to induce muscular atrophy. The animals were randomly divided into a total of 5 groups, 8 animals per group, depending on their weight. Each of gangliosides GM3, GM1, GD1a, GT1b, and GQ1b (each 50 mg/kg body weight) as experimental groups was suspended in 0.25% carboxymethylcellulose. The suspension was administered at a given time once a day for 8 weeks. A group administered the same amounts of 0.25% carboxymethyl cellulose and TNF-α ingested by each experimental group was used as a control.
# After administration of the sample for 8 weeks, the right soleus was dissected and its weight was measured with a microbalance (Mettler PE160, USA).
# [6] = tested on: p-4EBP1; assay: Western blot of mRNA translation biomarkers in TNF-α-treated L6 myotubes: p-4EBP1; assay type: cell-based; conditions: 50 ng/mL TNF-α
# Procedure: as §1, §2
# [7] = tested on: atrogin-1; assay: RT-PCR of muscle degrading protein mRNA in TNF-α-treated L6 myotubes: atrogin-1; assay type: cell-based; conditions: 50 ng/mL TNF-α
# Procedure: as §3, §4, §5, §6
smiles,measurement,setting,value
"CCCCCCCCCCCCC/C=C/[C@@H](O)[C@H](CO[C@@H]1OC(CO)[C@@H](O[C@@H]2OC(CO)[C@@H](O)C(O[C@]3(C(=O)O)CC(O)[C@@H](NC(C)=O)C([C@@H](O)[C@H](O)CO)O3)C2O)C(O)C1O)NC(=O)CCCCCCCCCCCCCCCCC (some centres unmarked) [Ganglioside GM3, ganglioside GM3]",activity of mTOR in L6 muscle cells,[1]; 1 μM or 5 μM,significantly increased
same,expression level of phosphorylated p-P70S6K in L6 muscle cells,[2]; 1 μM or 5 μM,increased
same,expression level of phosphorylated p-mTOR in L6 muscle cells,[3]; 1 μM or 5 μM,increased
same,mRNA expression level of MuRF1 in L6 muscle cells,[4]; 1 μM or 5 μM,reduced
same,increase of muscle (soleus) weight compared to the control group,[5],23.56%
same,Average soleus weight,[5],514.0 ± 18.4 mg
same,expression level of phosphorylated p-4EBP1 in L6 muscle cells,[6]; 1 μM or 5 μM,increased
same,mRNA expression level of atrogin-1 in L6 muscle cells,[7]; 1 μM or 5 μM,reduced
"CCCCCCCCCCCCC/C=C/[C@@H](O)[C@H](CO[C@@H]1OC(CO)[C@@H](O[C@@H]2OC(CO)[C@H](O[C@H]3OC(CO)[C@H](O)C(OC4OC(CO)C(O)[C@H](O[C@]5(C(=O)O)CC(O)[C@@H](NC(C)=O)C([C@@H](O)[C@H](O)CO)O5)C4CO)C3NC(C)=O)C(O[C@]3(C(=O)O)CC(O)[C@@H](NC(C)=O)C([C@@H](O)[C@H](CO)O[C@]4(C(=O)O)CC(O)[C@@H](NC(C)=O)C([C@@H](O)[C@H](O)CO)O4)O3)C2O)C(O)C1O)NC(=O)CCCCCCCCCCCCCCCCC (some centres unmarked) [Ganglioside GT1b, ganglioside GT1b]",activity of mTOR in L6 muscle cells,[1]; 1 μM,significantly increased
same,mRNA expression level of MuRF1 in L6 muscle cells,[4]; 1 μM,reduced
same,increase of muscle (soleus) weight compared to the control group,[5],14.42%
same,Average soleus weight,[5],476.0 ± 24.1 mg
same,mRNA expression level of atrogin-1 in L6 muscle cells,[7]; 1 μM,reduced
"CCCCCCCCCCCCC/C=C/[C@@H](O)[C@H](CO[C@@H]1OC(CO)[C@@H](O[C@@H]2OC(CO)[C@H](O[C@H]3OC(CO)[C@H](O)C(O[C@@H]4OC(CO)[C@H](O[C@]5(C(=O)O)CC(O)[C@@H](NC(C)=O)C([C@@H](O)[C@H](O)CO)O5)C(O)C4O)C3NC(C)=O)C(O[C@]3(C(=O)O)CC(O)[C@@H](NC(C)=O)C([C@@H](O)[C@H](O)CO)O3)C2O)C(O)C1O)NC(=O)CCCCCCCCCCCCCCCCC (some centres unmarked) [Ganglioside GD1a, ganglioside GD1a]",activity of mTOR in L6 muscle cells,[1]; 1 μM or 3 μM,significantly increased
same,expression level of phosphorylated p-P70S6K in L6 muscle cells,[2]; 1 μM or 3 μM,increased
same,expression level of phosphorylated p-mTOR in L6 muscle cells,[3]; 1 μM or 3 μM,increased
same,mRNA expression level of MuRF1 in L6 muscle cells,[4]; 1 μM or 3 μM,reduced
same,increase of muscle (soleus) weight compared to the control group,[5],17.79%
same,Average soleus weight,[5],490.0 ± 22.8 mg
same,expression level of phosphorylated p-4EBP1 in L6 muscle cells,[6]; 1 μM or 3 μM,increased
same,mRNA expression level of atrogin-1 in L6 muscle cells,[7]; 1 μM or 3 μM,reduced
"CCCCCCCCCCCCC/C=C/[C@@H](O)[C@H](CO[C@@H]1OC(CO)[C@@H](O[C@@H]2OC(CO)[C@H](O[C@H]3OC(CO)[C@H](O)C(O[C@@H]4OC(CO)[C@@H](O)C(O[C@]5(C(=O)O)CC(O)[C@@H](NC(C)=O)C([C@@H](O)[C@H](CO)O[C@]6(C(=O)O)CC(O)[C@@H](NC(C)=O)C([C@@H](O)[C@H](O)CO)O6)O5)C4O)C3NC(C)=O)C(O[C@]3(C(=O)O)CC(O)[C@@H](NC(C)=O)C([C@@H](O)[C@H](CO)O[C@]4(C(=O)O)CC(O)[C@@H](NC(C)=O)C([C@@H](O)[C@H](O)CO)O4)O3)C2O)C(O)C1O)NC(=O)CCCCCCCCCCCCCCCCC (some centres unmarked) [Ganglioside GQ1b, ganglioside GQ1b]",activity of mTOR in L6 muscle cells,[1]; 1 μM,significantly increased
same,mRNA expression level of MuRF1 in L6 muscle cells,[4]; 1 μM,reduced
same,increase of muscle (soleus) weight compared to the control group,[5],16.37%
same,Average soleus weight,[5],484.1 ± 25.4 mg
same,mRNA expression level of atrogin-1 in L6 muscle cells,[7]; 1 μM,reduced
